One may read the Km as the concentration of substrate that gives half-maximal velocity.

The record followed here is publication PMC10897400, “Biochemical and structural characterization of an inositol pyrophosphate kinase from a giant virus” (The EMBO Journal, 2024).

The target of one data set is T1, TvIPK^17-265 (Terrestrivirus sp., UniProt A0A3G4ZNY6).
T1 construct: gene Terrestrivirus9_15; truncated crystallization construct, residues 17-265, E. coli; residues 17-47 not traced; one molecule per asymmetric unit
T1 sequence (A0A3G4ZNY6 17-265): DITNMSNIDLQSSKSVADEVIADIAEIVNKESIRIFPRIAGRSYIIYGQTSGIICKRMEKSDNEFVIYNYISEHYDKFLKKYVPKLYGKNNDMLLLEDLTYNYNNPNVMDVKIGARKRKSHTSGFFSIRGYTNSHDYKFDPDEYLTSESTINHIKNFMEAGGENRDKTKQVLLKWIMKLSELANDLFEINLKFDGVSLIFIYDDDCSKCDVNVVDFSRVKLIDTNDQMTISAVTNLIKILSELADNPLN
The experiment in a line: X-ray crystal structure. It counts as binding. To be noted: Cd2+ in place of Mg2+, soaked 5 mM, Pi present.

The next data set addresses T2, TvIPK (full length) (Terrestrivirus sp., UniProt A0A3G4ZNY6).
T2 construct: gene Terrestrivirus9_15; full-length, codon-optimized, E. coli BL21(DE3); N-terminal His6-MBP tag removed with TEV protease
T2 sequence (A0A3G4ZNY6 1-265): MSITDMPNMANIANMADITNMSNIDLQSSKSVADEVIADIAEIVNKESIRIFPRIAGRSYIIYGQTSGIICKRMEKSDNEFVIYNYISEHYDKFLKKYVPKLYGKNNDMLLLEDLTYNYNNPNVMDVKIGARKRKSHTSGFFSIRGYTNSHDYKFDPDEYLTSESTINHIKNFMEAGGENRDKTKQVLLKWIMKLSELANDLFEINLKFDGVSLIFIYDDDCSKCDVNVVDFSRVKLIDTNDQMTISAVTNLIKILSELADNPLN
Description: X-ray crystal structure. To be noted: co-crystallised with 5 mM ADP, 10 mM MgCl2. It counts as binding.

Substrate in the data set “HPLC with [gamma-33P]ATP”: Nc1ncnc2c1ncn2[C@@H]1O[C@H](COP(=O)(O)OP(=O)(O)OP(=O)(O)O)[C@@H](O)[C@H]1O
The experiment in a line: HPLC with [gamma-33P]ATP. To be noted: 2 mM myo-IP6, 3.5 mM MgCl2, pH 7.2, 25 °C, labelled compound. It counts as biochemical, Terrestrivirus sp.

Substrate in data set [1]: O=P(O)(O)O[C@H]1[C@H](OP(=O)(O)O)[C@@H](OP(=O)(O)O)[C@H](OP(=O)(O)O)[C@@H](OP(=O)(O)O)[C@H]1OP(=O)(O)O
The experiment in a line: HPLC of [3H]IP6 pyrophosphorylation. It counts as biochemical, Terrestrivirus sp. The following applies: 1 mM ATP, 3.5 mM MgCl2, pH 7.2, 25 °C, creatine kinase / creatine phosphate ATP regeneration, labelled compound.

On to `Nc1ncnc2c1ncn2[C@@H]1O[C@H](COP(=O)(O)OP(=O)(O)NP(=O)(O)O)[C@@H](O)[C@H]1O` [AMP-PNP], for which the X-ray crystal structure result on TvIPK^17-265 is “We also derived crystal complexes with ATP and AMP-PNP”.
For `Nc1ncnc2c1ncn2[C@@H]1O[C@H](COP(=O)(O)OP(=O)(O)OP(=O)(O)O)[C@@H](O)[C@H]1O` [ATP], at TvIPK^17-265 (two ATP conformations), the X-ray crystal structure entry is on record as “by making this substitution, we derived an ATP/TvIPK crystal complex”.
For the molecule `Nc1ncnc2c1ncn2[C@@H]1O[C@H](COP(=O)(O)OP(=O)(O)O)[C@@H](O)[C@H]1O` [ADP], the X-ray crystal structure entry at TvIPK (full length) is reported as “in a binary complex of full-length TvIPK plus ADP”.

B1: TvIPK (full length) (Terrestrivirus sp.) (protein)
chain: T2 sequence (A0A3G4ZNY6 1-265)
notes: full-length, codon-optimized, E. coli BL21(DE3); N-terminal His6-MBP tag removed with TEV protease
B1: the Km came out at 1600 µM in the data set “HPLC with [gamma-33P]ATP” and 81 µM in data set [1].
